Experimental data from patent publication US8916551B2, “Heterocyclic compound and use thereof” (Takeda Pharmaceutical Company Limited, priority 2010, dated 2014).

system: not given; experiment: not given; conditions: not given

| melting point [°C] | SMILES |
| --- | --- |
| 165 to 167 | O=S1(=O)CCN2CCCC(c3ccc(Oc4cccc(Cl)c4)cc3)C2=N1 (centres unmarked) [Example 201, 9-[4-(3-chlorophenoxy)phenyl]-3,4,6,7,8,9-hexahydropyrido[2,1-c][1,2,4]thiadiazine 2,2-dioxide] |
| 222 to 223 | O=S1(=O)CCN2C=CC=C(c3ccc(OCC4CCCO4)cc3)C2=N1 (centres unmarked) [Example 75, 9-[4-(tetrahydrofuran-2-ylmethoxy)phenyl]-3,4-dihydropyrido[2,1-c][1,2,4]thiadiazine 2,2-dioxide] |
| 169 to 170 | CCCOc1ccc(C2CCCN3CCS(=O)(=O)N=C23)cc1 (centres unmarked) [Example 190, 9-(4-propoxyphenyl)-3,4,6,7,8,9-hexahydropyrido[2,1-c][1,2,4]thiadiazine 2,2-dioxide] |
| 124 to 125 | O=S1(=O)CCN2CCN[C@@H](c3ccc(Oc4ccccc4)cc3)C2=N1 [Example 212, (9S)-(4-phenoxyphenyl)-3,4,6,7,8,9-hexahydropyrazino[2,1-c][1,2,4]thiadiazine 2,2-dioxide] |
| 248 to 250 | Cc1ccc(Oc2ccc(C3=CC=CN4CCS(=O)(=O)N=C34)cc2)cc1 [Example 168, 9-[4-(4-methylphenoxy)phenyl]-3,4-dihydropyrido[2,1-c][1,2,4]thiadiazine 2,2-dioxide] |
| 253 to 255 | O=S1(=O)CCN2C=CC=C(c3ccc(Oc4ccccc4)cc3)C2=N1 [Example 167, 9-(4-phenoxyphenyl)-3,4-dihydropyrido[2,1-c][1,2,4]thiadiazine 2,2-dioxide] |
| 171 to 172 | CC(F)(F)c1ccc(Oc2ccc(C3CCCN4CCS(=O)(=O)N=C34)cc2)cc1 (centres unmarked) [Example 170, 9-{4-[4-(1,1-difluoroethyl)phenoxy]phenyl}-3,4,6,7,8,9-hexahydropyrido[2,1-c][1,2,4]thiadiazine 2,2-dioxide] |
| 291 to 292 | CC(C)(C)c1ccc(C2=CC=CN3CCS(=O)(=O)N=C23)cc1 [Example 35, 9-(4-tert-butylphenyl)-3,4-dihydropyrido[2,1-c][1,2,4]thiadiazine 2,2-dioxide] |
| 191 to 192 | CC(C)Oc1ccc(C2CCCN3CCS(=O)(=O)N=C23)cc1 (centres unmarked) [Example 40, 9-[4-(1-methylethoxy)phenyl]-3,4,6,7,8,9-hexahydropyrido[2,1-c][1,2,4]thiadiazine 2,2-dioxide] |
| 258 to 259 | O=S1(=O)CCN2C=CC=C(c3ccc(OCC4CCCC4)cc3)C2=N1 [Example 74, 9-[4-(cyclopentylmethoxy)phenyl]-3,4-dihydropyrido[2,1-c][1,2,4]thiadiazine 2,2-dioxide] |
| 207 to 208 | O=S1(=O)CCN2CCCC(c3ccc(OC(F)(F)F)cc3)C2=N1 (centres unmarked) [Example 41, 9-[4-(trifluoromethoxy)phenyl]-3,4,6,7,8,9-hexahydropyrido[2,1-c][1,2,4]thiadiazine 2,2-dioxide] |
| 238 to 239 | O=S1(=O)CCN2C=C(Cl)C=C(c3ccc(Oc4cc(C(F)(F)F)ccn4)cc3)C2=N1 [Example 76, 7-chloro-9-(4-{[4-(trifluoromethyl)pyridin-2-yl]oxy}phenyl)-3,4-dihydropyrido[2,1-c][1,2,4]thiadiazine 2,2-dioxide] |
| 253 to 255 | O=S1(=O)CCN2C=CC=C(c3ccc(Oc4ccc(C(F)(F)F)cc4)cc3)C2=N1 [Example 200, 9-{4-[4-(trifluoromethyl)phenoxy]phenyl}-3,4-dihydropyrido[2,1-c][1,2,4]thiadiazine 2,2-dioxide] |
| 152 to 153 | CCc1ccc(Oc2ccc([C@H]3CCCN4CCS(=O)(=O)N=C34)cc2)cc1 [Example 217, (9R)-9-[4-(4-ethylphenoxy)phenyl]-3,4,6,7,8,9-hexahydropyrido[2,1-c][1,2,4]thiadiazine 2,2-dioxide] |
| 232 to 236 | CC(C)(C)c1ccc(C2CCCN3CCS(=O)(=O)N=C23)cc1 (centres unmarked) [Example 38, 9-(4-tert-butylphenyl)-3,4,6,7,8,9-hexahydropyrido[2,1-c][1,2,4]thiadiazine 2,2-dioxide] |
| 183 to 185 | O=S1(=O)CCN2CCCC(c3ccc(Oc4ccc(Cl)cc4)cc3)C2=N1 (centres unmarked) [Example 150, 9-[4-(4-chlorophenoxy)phenyl]-3,4,6,7,8,9-hexahydropyrido[2,1-c][1,2,4]thiadiazine 2,2-dioxide] |
| 124 to 125 | O=S1(=O)CCN2CCN[C@H](c3ccc(Oc4ccccc4)cc3)C2=N1 [Example 213, (9R)-9-(4-phenoxyphenyl)-3,4,6,7,8,9-hexahydropyrazino[2,1-c][1,2,4]thiadiazine 2,2-dioxide] |
| 177 to 179 | O=S1(=O)CCN2CCCC(c3ccc(Oc4ccc(C(F)(F)F)cc4)cc3)C2=N1 (centres unmarked) [Example 233, 9-{4-[4-(trifluoromethyl)phenoxy]phenyl}-3,4,6,7,8,9-hexahydropyrido[2,1-c][1,2,4]thiadiazine 2,2-dioxide] |
| 245 to 247 | CC(C)Oc1ccc(C2=CC=CN3CCS(=O)(=O)N=C23)cc1 [Example 33, 9-[4-(1-methylethoxy)phenyl]-3,4-dihydropyrido[2,1-c][1,2,4]thiadiazine 2,2-dioxide] |
| 171 to 176 | O=S1(=O)CCN2CCC[C@H](c3ccc(Oc4ccccc4)cc3)C2=N1 [Example 62, (9R)-9-(4-phenoxyphenyl)-3,4,6,7,8,9-hexahydropyrido[2,1-c][1,2,4]thiadiazine 2,2-dioxide] |
| 198 to 203 | CC(C)c1ccc(C2CCCN3CCS(=O)(=O)N=C23)cc1 (centres unmarked) [Example 42, 9-[4-(1-methylethyl)phenyl]-3,4,6,7,8,9-hexahydropyrido[2,1-c][1,2,4]thiadiazine 2,2-dioxide] |
| 237 to 239 | CCC(C)c1ccc(C2=CC=CN3CCS(=O)(=O)N=C23)cc1 (centres unmarked) [Example 32, 9-[4-(1-methylpropyl)phenyl]-3,4-dihydropyrido[2,1-c][1,2,4]thiadiazine 2,2-dioxide] |
| 254 to 256 | O=S1(=O)CCN2C=CC=C(c3ccc(OC4CCCC4)cc3)C2=N1 [Example 66, 9-[4-(cyclopentyloxy)phenyl]-3,4-dihydropyrido[2,1-c][1,2,4]thiadiazine 2,2-dioxide] |
| 275 to 277 | O=S1(=O)CCN2C=CC=C(c3ccc(OC4CCCCC4)cc3)C2=N1 [Example 165, 9-[4-(cyclohexyloxy)phenyl]-3,4-dihydropyrido[2,1-c][1,2,4]thiadiazine 2,2-dioxide] |
| 251 to 252 | O=S1(=O)CCN2C=CC=C(c3ccc(Oc4ccccc4)cc3)C2=N1 [Example 166, 9-(4-phenoxyphenyl)-3,4-dihydropyrido[2,1-c][1,2,4]thiadiazine 2,2-dioxide] |
| 154 to 156 | O=S1(=O)CCN2CCC[C@@H](c3ccc(Oc4ccc(F)c(Cl)c4)cc3)C2=N1 [Example 457, (9S)-9-[4-(3-chloro-4-fluorophenoxy)phenyl]-3,4,6,7,8,9-hexahydropyrido[2,1-c][1,2,4]thiadiazine 2,2-dioxide] |
| 241 to 242 | O=S1(=O)CCN2C=CC=C(c3ccc(-c4ccccc4)s3)C2=N1 [Example 50, 9-(5-phenylthiophen-2-yl)-3,4-dihydropyrido[2,1-c][1,2,4]thiadiazine 2,2-dioxide] |

| SMILES | melting point [°C] |
| --- | --- |
| CCCCOc1ccc(C2=CC=CN3CCS(=O)(=O)N=C23)cc1 [Example 209, 9-(4-butoxyphenyl)-3,4-dihydropyrido[2,1-c][1,2,4]thiadiazine 2,2-dioxide] | 230 to 232 |

molecular target: T1, AMPA receptor (human GluR1 flip/stargazin expressed in CHO-K1 cells) (Homo sapiens, UniProt P42261); experiment: AMPA receptor function enhancing activity using calcium influx as index; type: cell-based; conditions: test compound 30 μM with 3 mM glutamic acid, change in fluorescence level in 3 min, 100% = 3 mM glutamic acid + 300 μM cyclothiazide, 0% = 3 mM glutamic acid only
T1 construct: expressed in transfected cells; host or cells: CHO-K1
Method in brief: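 CHO-K1 clone stably co-expressing human GluR1 flip and stargazin, loaded with Calcium 4 dye plus probenecid. Compound at 30 μM was added with glutamate (3 mM final) and fluorescence change followed over 3 min. Activity is expressed as % of the 3 mM glutamate plus 300 μM cyclothiazide response, with glutamate alone as 0%.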

T1 sequence (P42261 19-906 isoform P42261-2 limits assumed): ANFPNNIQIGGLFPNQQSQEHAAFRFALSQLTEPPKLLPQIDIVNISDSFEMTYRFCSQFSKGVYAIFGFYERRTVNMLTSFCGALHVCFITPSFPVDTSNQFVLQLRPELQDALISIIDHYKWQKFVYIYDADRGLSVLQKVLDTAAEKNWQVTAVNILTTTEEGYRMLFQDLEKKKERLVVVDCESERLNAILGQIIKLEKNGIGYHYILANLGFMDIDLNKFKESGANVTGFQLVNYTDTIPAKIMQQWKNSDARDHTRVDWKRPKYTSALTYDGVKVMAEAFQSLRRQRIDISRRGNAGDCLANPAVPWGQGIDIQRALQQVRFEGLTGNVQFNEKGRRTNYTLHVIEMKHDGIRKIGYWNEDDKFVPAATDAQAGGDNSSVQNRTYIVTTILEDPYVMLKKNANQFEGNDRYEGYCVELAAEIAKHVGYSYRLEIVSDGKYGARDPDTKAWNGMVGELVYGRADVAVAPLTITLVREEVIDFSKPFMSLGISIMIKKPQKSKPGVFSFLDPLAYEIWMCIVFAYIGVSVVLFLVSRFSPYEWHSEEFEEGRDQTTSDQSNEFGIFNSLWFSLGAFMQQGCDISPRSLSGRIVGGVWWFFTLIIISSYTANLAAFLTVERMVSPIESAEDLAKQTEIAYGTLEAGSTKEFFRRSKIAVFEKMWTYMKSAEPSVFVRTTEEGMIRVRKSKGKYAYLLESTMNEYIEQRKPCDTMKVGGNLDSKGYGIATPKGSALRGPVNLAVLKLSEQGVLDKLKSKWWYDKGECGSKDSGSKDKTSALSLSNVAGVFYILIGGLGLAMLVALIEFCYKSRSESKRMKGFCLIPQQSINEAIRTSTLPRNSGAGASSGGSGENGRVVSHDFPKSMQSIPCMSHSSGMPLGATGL
T1 sequence (Q9Y698 whole entry partner): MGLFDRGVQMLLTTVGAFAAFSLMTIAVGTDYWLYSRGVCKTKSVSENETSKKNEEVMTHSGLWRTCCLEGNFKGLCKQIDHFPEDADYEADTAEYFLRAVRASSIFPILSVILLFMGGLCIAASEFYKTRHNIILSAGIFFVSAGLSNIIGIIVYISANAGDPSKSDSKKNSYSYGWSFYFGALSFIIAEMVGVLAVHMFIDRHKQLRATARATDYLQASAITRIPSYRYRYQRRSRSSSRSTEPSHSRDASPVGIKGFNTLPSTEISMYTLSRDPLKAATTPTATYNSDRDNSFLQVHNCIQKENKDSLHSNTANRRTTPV

| activity (%) | SMILES |
| --- | --- |
| 74 | O=S1(=O)CCN2CCCC(c3ccc(Oc4cccc(Cl)c4)cc3)C2=N1 (centres unmarked) [Example 201, 9-[4-(3-chlorophenoxy)phenyl]-3,4,6,7,8,9-hexahydropyrido[2,1-c][1,2,4]thiadiazine 2,2-dioxide] |
| 71 | O=S1(=O)CCN2CCNC(c3ccc(Oc4ccccc4)cc3)C2=N1 (centres unmarked) [Example 211, 9-(4-phenoxyphenyl)-3,4,6,7,8,9-hexahydropyrazino[2,1-c][1,2,4]thiadiazine 2,2-dioxide] |
| 96 | O=S1(=O)CCN2CCCC(c3ccc(-c4ccccc4Cl)cc3)C2=N1 (centres unmarked) [Example 221, 9-(2′-chlorobiphenyl-4-yl)-3,4,6,7,8,9-hexahydropyrido[2,1-c][1,2,4]thiadiazine 2,2-dioxide] |

same assay, conditions: test compound 30 μM with glutamic acid final 3 mM, change in fluorescence in 3 min, 100% = 3 mM glutamic acid + 300 μM cyclothiazide, 0% = 3 mM glutamic acid only

| activity (%) | SMILES |
| --- | --- |
| 81 | O=S1(=O)CCN2C=CC=C(c3ccc(OCC4CCCO4)cc3)C2=N1 (centres unmarked) [Example 75, 9-[4-(tetrahydrofuran-2-ylmethoxy)phenyl]-3,4-dihydropyrido[2,1-c][1,2,4]thiadiazine 2,2-dioxide] |
| 88 | O=S1(=O)CCN2C=CC=C(c3ccc(N4CCCC4)cc3)C2=N1 [Example 80, 9-(4-pyrrolidin-1-ylphenyl)-3,4-dihydropyrido[2,1-c][1,2,4]thiadiazine 2,2-dioxide] |
| 88 | O=S1(=O)CCN2C=CC=C(c3ccc(-n4nc(C(F)(F)F)cc4C4CC4)cc3)C2=N1 [Example 299, 9-{4-[5-cyclopropyl-3-(trifluoromethyl)-1H-pyrazol-1-yl]phenyl}-3,4-dihydropyrido[2,1-c][1,2,4]thiadiazine 2,2-dioxide] |
| 95 | CC(C)c1ccc(C(=O)NC2=CC=CN3CCS(=O)(=O)N=C23)cc1 [Example 37, N-(2,2-dioxido-3,4-dihydropyrido[2,1-c][1,2,4]thiadiazin-9-yl)-4-(1-methylethyl)benzamide] |
| 71 | Cc1cc(C2CCCN3CCS(=O)(=O)N=C23)ccc1-c1ccccc1 (centres unmarked) [Example 102, 9-(2-methylbiphenyl-4-yl)-3,4,6,7,8,9-hexahydropyrido[2,1-c][1,2,4]thiadiazine 2,2-dioxide] |
| 85 | CC(F)(F)c1ccc(Oc2ccc(C3=CC=CN4CCS(=O)(=O)N=C34)cc2)cc1 [Example 323, 9-{4-[4-(1,1-difluoroethyl)phenoxy]phenyl}-3,4-dihydropyrido[2,1-c][1,2,4]thiadiazine 2,2-dioxide] |
| 67 | O=S1(=O)CCN2CCCC(c3ccc(Oc4ccccc4C(F)(F)F)cc3)C2=N1 (centres unmarked) [Example 86, 9-{4-[2-(trifluoromethyl)phenoxy]phenyl}-3,4,6,7,8,9-hexahydropyrido[2,1-c][1,2,4]thiadiazine 2,2-dioxide] |
